According to paper PMC9322189, “Development of a Personalized Tumor Neoantigen Based Vaccine Formulation (FRAME-001) for Use in a Phase II Trial for the Treatment of Advanced Non-Small Cell Lung Cancer” (Pharmaceutics, 2022):
No end group written: not given here.

test: Freeze–thaw stability of model peptides, UPLC-MS; type: physicochemical; conditions: 150 µg/mL in PBS, two freeze–thaw cycles, fivefold on three consecutive days
Protocol: A UPLC-MS system was used for the development and validation of the stability-indicating analytical method. The apparatus, column, flow rate, mobile phase A, mobile phase B, mass acquisition, and sample run time were: UPLC UltiMate 3000 RSLC System (Thermo Fisher Scientific, Waltham, MA, USA) coupled to a Q Exactive Orbitrap Mass Spectrometers (Thermo Fisher Scientific, Waltham, MA, USA); Acquity UPLC Peptide CSH C18, 130 Å, 1.7 µm, 2.1 mm × 150 mm (Waters Corporation, Milford, MA, USA); 0.40 mL/min; 0.013% ammonium formate and 0.1% formic acid dissolved in ultrapure water (pH 2.8); 0.013% ammonium formate and 0.1% formic acid dissolved in a mixture of 0.495:0.495:0.10 methanol, acetonitrile, and ultrapure water; masses scanned from 300.0–1900.0 m/z; 15 min; respectively. The mobile phase gradient started at t0 min with 98% of mobile phase A that was gradually adjusted to 40% at t9 min. At t9.1 min, mobile phase A was set at 2% till t11.1 min. At t11.2 min, mobile phase A was set at 98% until the end of the sample run time.
For each peptide, six stock concentrations in the range of 5–225 µg/mL dissolved in PBS were made. The linear relationship of the calibration curves was investigated by regression analysis. The linear correlation coefficient (R^2), goodness of fit, and lack of fit were analyzed. For the accuracy and precision tests, samples of 50 µg/mL, 150 µg/mL, and 225 µg/mL were analyzed in triplicate on three consecutive days to determine the closeness of agreement of the measurements compared to the analyzed concentrations (accuracy % bias) and repeated experiments (relative standard deviations (RSD)). For the sensitivity test, peptide samples at 5 µg/mL were analyzed in triplicate on three consecutive days and the signal-to-noise (S/N) ratio was calculated from representative chromatograms. For the freeze–thaw experiment, samples at 150 µg/mL for each of the three peptides were prepared and analyzed in fivefold on three consecutive days after each sample was subjected to two freeze–thaw cycles before the analysis was initiated.

Freeze–thaw stability, average bias	Sequence
1%	SAMEKRGARETQQQRKRVFRGRGVNSAK [FRM001P11]
8%	SVTNTSLAHELWKVPLHLKTSLLRPAHLRD [FRM001P02]
4%	VTLEERLDKACEPGVDYDGQTGVIHFQPRG [FRM001P23]
